These results are taken from paper PMC12863032, “Design, synthesis, and anticancer activity of novel isocryptolepine ‘aza’ type acyl thiourea derivatives via combined experimental and computational approach” (Bioscience Reports, 2026).

What all share (type): biochemical
The target of assay [1] is mushroom tyrosinase. Description: Mushroom tyrosinase inhibition assay. Conditions: L-DOPA substrate, Mean ± SEM. Here is the method: The inhibition of mushroom tyrosinase (Sigma Chemical, U.S.A.) was performed in accordance with previously documented methodologies [[57–59]]. Each well of a 96-well microplate received 20 µl of mushroom tyrosinase (30 U/ml), 20 µl of the inhibitor solution, and 140 µl of phosphate buffer (20 mM, pH 6.8). After a 10 min preincubation at room temperature, 20 µl of L-DOPA (3,4-dihydroxyphenylalanine, Sigma Chemical, U.S.A.) at a concentration of 0.85 mM was added, and the test plate was incubated for an additional 20 min at 25°C. The absorbance of dopachrome was later quantified at 475 nm using a microplate reader (SpectraMax ABS, U.S.A.). […] Every experiment was performed three times. IC50 values were calculated by nonlinear regression using GraphPad Prism 5.0 (GraphPad, San Diego, CA U.S.A.).
The % Inhibition of tyrosinase was calculated as following:
Tyrosinase % Inhibition= (Blank−Sample)/B×100 = ( Equation 1 ).

Assay [2] has as its target calf intestinal alkaline phosphatase (CIAP) (Bos taurus, UniProt P19111). Description: Alkaline phosphatase inhibition assay. To be noted: p-NPP substrate, Mean ± SEM. The method, then: Spectrophotometric analysis, as previously described in publications, can be used to evaluate the activity of calf intestinal alkaline phosphatase (CIAP). The reaction mixture, including 10 µl of the reagent and 50 mM Tris-HCl buffer (5 mM MgCl2, 0.1 mM ZnCl2, pH 9.5), is preincubated for 10 min following the addition of 5 µl of CIAP (0.025 U/ml). The test mixture was then incubated at 37°C for another half hour after 10 µl of a substrate (0.5 mM p-NPP, para nitrophenyl phosphate disodium salt) was added to initiate the reaction. The alteration in absorbance of released p-nitrophenolate was measured using a 96-well microplate reader (Thermo Scientific Multiskan GO, U.S.A.) at 405 nm. All tests were repeated three times. […] The inhibition activity was calculated according to the following equation:
Inhibition(%)=(Blank−Sample)/Blank×100
IC50 values were designed using 6–8 serial dilutions, and the data were analyzed by nonlinear regression using GraphPad Prism 5 (GraphPad, San Diego, CA, U.S.A.).

A further assay addresses carbonic anhydrase (Bos taurus, UniProt P00921). The experiment in a line: Carbonic anhydrase inhibition assay (p-nitrophenyl acetate hydrolysis). To be noted: bovine enzyme, p-nitrophenyl acetate substrate, Mean ± SEM. The method, then: The inhibition of carbonic anhydrase was assessed as previously outlined, with certain modifications [[60–62]]. The method employed involves the hydrolysis of p-nitrophenyl acetate by carbonic anhydrase, resulting in the formation of yellow p-nitrophenol, which was subsequently analyzed through spectrophotometry. The reaction mixture included 20 µl of inhibitor, 120 µl of 50 mM Tris-Sulfate buffer (pH 7.6 with 0.1 mM ZnCl2), and 20 µl of bovine enzyme (50 U) per well. The components were mixed and preincubated at 25°C for 10 min. A 6 mM stock solution of the substrate p-nitrophenyl acetate was prepared with less than 5% acetonitrile in buffer and utilized fresh for each experiment, with 40 µl added per well to attain a concentration of […] per well. The total reaction volume was adjusted to 200 µl. […] Acetazolamide served as the reference standard. Each concentration underwent three separate evaluations. IC50 values were determined through nonlinear regression analysis utilizing GraphPad Prism 5.0 (GraphPad, San Diego, CA, U.S.A.).
Inhibition(%)=(B−S)/B×100
Here, the B and S are the absorbances for the blank and samples.

For assay [3], the system named is mushroom tyrosinase. Description: Mushroom tyrosinase inhibition assay.

Each structure is given as a SMILES string.

calf intestinal alkaline phosphatase (CIAP), sequence (P19111 20-533): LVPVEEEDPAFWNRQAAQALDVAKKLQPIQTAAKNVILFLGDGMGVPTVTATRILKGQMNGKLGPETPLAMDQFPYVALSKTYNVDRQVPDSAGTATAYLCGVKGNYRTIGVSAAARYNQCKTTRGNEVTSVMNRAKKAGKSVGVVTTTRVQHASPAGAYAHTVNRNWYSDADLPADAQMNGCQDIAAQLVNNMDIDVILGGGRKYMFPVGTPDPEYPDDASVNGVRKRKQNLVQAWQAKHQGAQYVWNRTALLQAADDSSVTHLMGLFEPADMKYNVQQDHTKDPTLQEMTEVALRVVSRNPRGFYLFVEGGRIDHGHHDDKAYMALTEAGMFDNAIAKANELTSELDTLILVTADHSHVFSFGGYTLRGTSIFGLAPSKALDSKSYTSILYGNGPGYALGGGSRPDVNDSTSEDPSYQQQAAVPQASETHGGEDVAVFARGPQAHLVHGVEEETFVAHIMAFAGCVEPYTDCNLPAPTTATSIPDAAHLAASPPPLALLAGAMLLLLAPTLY
carbonic anhydrase, sequence (P00921 whole entry): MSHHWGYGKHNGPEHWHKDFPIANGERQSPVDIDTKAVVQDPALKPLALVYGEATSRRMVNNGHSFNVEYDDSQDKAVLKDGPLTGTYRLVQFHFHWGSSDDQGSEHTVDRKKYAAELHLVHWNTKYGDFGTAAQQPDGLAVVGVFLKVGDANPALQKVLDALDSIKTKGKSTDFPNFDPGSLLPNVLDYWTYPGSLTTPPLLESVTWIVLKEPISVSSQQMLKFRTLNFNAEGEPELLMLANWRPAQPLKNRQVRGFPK

For the compound `CCCC(=O)NC(=S)Nc1ccccc1-c1nc2ccccc2c2nc3ccccc3n12` [Compound 6a, N-((2-(Benzo [4, 5]imidazo[1,2 c]quinazolin-6-yl)phenyl)carbamothioyl)butyramide], the values for the IC50 (against mushroom tyrosinase [1]; in assay [2]; against carbonic anhydrase) were 7.95 ± 0.63 µM, 20.6 µM and 10.9 ± 0.99 µM, respectively.

`CCCCC(=O)NC(=S)Nc1ccccc1-c1nc2ccccc2c2nc3ccccc3n12` [Compound 6b, N -((2-(Benzo[4,5]imidazo[1,2-c]quinazolin-6-yl)phenyl)carbamothioyl)pentanamide]: the values for the IC50 (at mushroom tyrosinase [1]; in assay [2]; against carbonic anhydrase) were 4.88 ± 0.54 µM, 10.7 ± 0.96 µM and 2.76 ± 0.56 µM, respectively.

`CCCCCC(=O)NC(=S)Nc1ccccc1-c1nc2ccccc2c2nc3ccccc3n12` [Compound 6c, N ((2-(Benzo [4, 5]imidazo[1,2 c]quinazolin-6-yl)phenyl)carbamothioyl)hexanamide]: the values for the IC50 (against mushroom tyrosinase [1]; in assay [2]; at carbonic anhydrase) were 2.8 ± 0.85 µM, 20.3 µM and 7.42 ± 0.74 µM, respectively.

With `CCCCCCC(=O)NC(=S)Nc1ccccc1-c1nc2ccccc2c2nc3ccccc3n12` [Compound 6d, N-((2-(Benzo [4, 5]imidazo[1,2 c]quinazolin-6-yl)phenyl)carbamothioyl)heptanamide], the IC50 on mushroom tyrosinase [1] turned out to be 0.921 ± 0.07 µM; in assay [2] it was 16.6 ± 0.98 µM; at carbonic anhydrase, 3.51 ± 0.63 µM.

In the case of `CCCCCCCC(=O)NC(=S)Nc1ccccc1-c1nc2ccccc2c2nc3ccccc3n12` [Compound 6e, N-((2-(Benzo [4, 5]imidazo[1,2 c]quinazolin-6-yl)phenyl)carbamothioyl)octanamide], the concentration for half-maximal inhibition (IC50) against mushroom tyrosinase [1] was determined as 1.85 ± 0.886 µM; in assay [2], 7.77 µM; on carbonic anhydrase it was 1.08 ± 0.42 µM.

With `CCCCCCCCC(=O)NC(=S)Nc1ccccc1-c1nc2ccccc2c2nc3ccccc3n12` [Compound 6f, N -((2-(Benzo[4,5]imidazo[1,2-c]quinazolin-6-yl)phenyl)carbamothioyl)nonanamide], the values for the IC50 (at mushroom tyrosinase [1]; in assay [2]; against carbonic anhydrase) were 2.05 ± 0.97 µM, 7.02 µM and 7.14 ± 0.95 µM, respectively.

`CCCCCCCCCC(=O)NC(=S)Nc1ccccc1-c1nc2ccccc2c2nc3ccccc3n12` [Compound 6g, N -((2-(Benzo[4,5]imidazo[1,2-c]quinazolin-6-yl)phenyl)carbamothioyl)decanamide]: the IC50 at mushroom tyrosinase [1] turned out to be 0.832 ± 0.03 µM; in assay [2], 2.81 ± 0.42 µM; against carbonic anhydrase, 0.708 ± 0.02 µM. Further, the “Type of tyrosinase inhibition (kinetic studies)” value in the assay with mushroom tyrosinase [3] is reported as “competitive inhibition”.

`CC(C)(C)C(=O)NC(=S)Nc1ccccc1-c1nc2ccccc2c2nc3ccccc3n12` [Compound 6h, N-((2-(Benzo [4, 5]imidazo[1,2 c]quinazolin-6-yl)phenyl)carbamothioyl)pivalamide]: the IC50 against mushroom tyrosinase [1] was 1.27 ± 0.17 µM; in assay [2], 7.2 ± 0.63 µM; at carbonic anhydrase, 2.33 ± 0.34 µM.
